Laboratory results reported in paper PMC12426595 (Cancer Research Communications, 2025).
One block for each compound: values may come before it.

Experiments:
[1] = target: T1, BTK-NanoLuc Fusion Vector in HEK293 cells (Homo sapiens, UniProt Q06187); test: NanoBRET intracellular binding assay, BTK; settings: read-out: EC50 BTK (NanoBRET), positive control
T1 construct: host or cells: HEK293
Procedure: Intracellular binding was determined with a NanoBRET assay (Reaction Biology). […] The protein kinase inhibitors dasatinib and […] were used as positive controls.

[2] = In vivo DDI: gilteritinib pharmacokinetics; design: species or system mouse; settings: plasma, po, 30 mg/kg, gilteritinib 30 mg/kg oral
[3] = In vivo DDI: pravastatin pharmacokinetics; settings: male, C57BL/6, mouse, plasma, po, 20 mg/kg, C57BL/6 male, pravastatin 20 mg/kg oral
[4] = test system: P-gp; settings: cited from earlier work
[5] = female, C57BL/6, mouse, C57BL/6 female, perpetrator TL-895 3 mg/kg
[6] = female, C57BL/6, mouse, C57BL/6 female, perpetrator vehicle
[7] = female, NSG (NOD/SCID gamma), mouse, NSG female, perpetrator TL-895 3 mg/kg
[8] = female, NSG (NOD/SCID gamma), mouse, NSG female, perpetrator vehicle
[9] = male, C57BL/6, mouse, C57BL/6 male, perpetrator TL-895 3 mg/kg
[10] = male, C57BL/6, mouse, C57BL/6 male, perpetrator vehicle
[11] = male, NSG (NOD/SCID gamma), mouse, NSG male, perpetrator TL-895 3 mg/kg
[12] = male, NSG (NOD/SCID gamma), mouse, NSG male, perpetrator vehicle

T1 sequence (Q06187 whole entry, the tested form may be a part): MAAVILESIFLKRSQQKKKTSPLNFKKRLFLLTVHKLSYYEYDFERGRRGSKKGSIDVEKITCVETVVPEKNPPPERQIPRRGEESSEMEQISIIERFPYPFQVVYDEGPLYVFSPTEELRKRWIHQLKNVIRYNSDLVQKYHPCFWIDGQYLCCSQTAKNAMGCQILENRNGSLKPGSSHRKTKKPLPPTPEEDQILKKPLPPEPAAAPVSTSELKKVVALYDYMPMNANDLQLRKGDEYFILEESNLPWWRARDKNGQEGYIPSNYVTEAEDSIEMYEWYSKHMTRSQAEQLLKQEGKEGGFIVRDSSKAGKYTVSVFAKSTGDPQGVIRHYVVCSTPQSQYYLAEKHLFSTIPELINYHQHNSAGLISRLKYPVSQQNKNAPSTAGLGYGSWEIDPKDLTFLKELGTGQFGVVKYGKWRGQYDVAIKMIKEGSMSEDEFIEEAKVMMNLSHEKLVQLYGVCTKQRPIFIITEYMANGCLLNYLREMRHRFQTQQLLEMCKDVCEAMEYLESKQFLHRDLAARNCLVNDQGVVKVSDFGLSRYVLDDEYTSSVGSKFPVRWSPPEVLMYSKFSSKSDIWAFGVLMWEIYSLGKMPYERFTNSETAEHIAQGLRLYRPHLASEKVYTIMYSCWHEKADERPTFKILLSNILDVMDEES

EC50 [1]: 30.1 nM
SMILES: CNC(=O)c1ccccc1Nc1nc(Nc2ccc(N3CCNCC3)cc2)ncc1Cl [CTx-0294885]

AUC [2, 5]: 6440 ng·h/mL
Cmax [2, 5]: 688 ± 97 ng/mL
AUC [2, 6]: 6980 ng·h/mL
Cmax [2, 6]: 787 ± 102 ng/mL
AUC [2, 7]: 4830 ng·h/mL
Cmax [2, 7]: 507 ± 28 ng/mL
AUC [2, 8]: 4930 ng·h/mL
Cmax [2, 8]: 593 ± 87 ng/mL
AUC [2, 9]: 5130 ng·h/mL
Cmax [2, 9]: 502 ± 113 ng/mL
AUC [2, 10]: 4960 ng·h/mL
Cmax [2, 10]: 469 ± 51 ng/mL
AUC [2, 11]: 4370 ng·h/mL
Cmax [2, 11]: 421 ± 20 ng/mL
AUC [2, 12]: 4410 ng·h/mL
Cmax [2, 12]: 440 ± 86 ng/mL
SMILES: CCc1nc(C(N)=O)c(Nc2ccc(N3CCC(N4CCN(C)CC4)CC3)c(OC)c2)nc1NC1CCOCC1 [Gilteritinib, gilteritinib]

AUC ([3]; perpetrator TL-895 10 mg/kg): 49.8 ± 7.6 ng·h/mL
Cmax ([3]; perpetrator TL-895 10 mg/kg): 182 ± 31 ng/mL
AUC ([3]; perpetrator rifampin 20 mg/kg): 333 ± 64 ng·h/mL
Cmax ([3]; perpetrator rifampin 20 mg/kg): 994 ± 148 ng/mL
AUC ([3]; perpetrator vehicle): 102 ± 42 ng·h/mL
Cmax ([3]; perpetrator vehicle): 406 ± 186 ng/mL
SMILES: CC[C@H](C)C(=O)O[C@H]1C[C@H](O)C=C2C=C[C@H](C)[C@H](CC[C@@H](O)C[C@@H](O)CC(=O)O)[C@H]21 [Pravastatin, pravastatin]

SMILES: C=CC(=O)N1CCC[C@@H](n2nc(-c3ccc(Oc4ccccc4)cc3)c3c(N)ncnc32)C1 [ibrutinib]
effect of P-gp deficiency on overall exposure [4]: only minimal effects
